# Source: patent US10478501B2, “Method of treating disorders using a pharmaceutical composition of oligopeptides” (Merck Patent GmbH, priority 2011, dated 2019)
# Tests used:
# [1] = test system: MDA-MB-231 breast cancer bone metastases; assay: Experimental breast cancer bone metastases in nude rats: volumes of osteolytic lesions and soft tissue components by VCT and MRI; assay type: in vivo, nude rats (RNU strain); settings: for Mean relative values of the OL (osteolytic lesion) volumes, increase compared to initial values at day 30 / Mean relative STC (soft tissue component) volume, increase compared to initial values at day 30: 75 mg/kg i.p. five times per week from day 30
# Description: (§1) Nude rats (RNU strain) are obtained from Harlan-Winkelmann GmbH (Borchen, Germany) at the age of six weeks and housed in a specific pathogen-free environment in a mini barrier system of the central animal facility. Animals are kept under controlled conditions (21±2° C. room temperature, 60% humidity, 12 h light-dark rhythm) and offered autoclaved food and water ad libitum. Sub-confluent MDAMB-231 cells are harvested using 0.05% Trypsin-EDTA (Gibco®; Invitrogen, Karlsruhe, Germany) counted on a Neubauer's chamber and resuspended in RPMI-1640 to a final concentration of 10^5 cells in 200 μl. Rats are anesthetized using a mixture of nitrous oxide (1 l/min), oxygen (0.5 l/min) and isoflurane (1.5 vol. %). Arterial branches of the right hind leg are dissected and 10^5 cells injected into the superficial epigastric artery as described previously.^28 Bone metastases established and are observed exclusively in the femur, tibia and fibula of the right hind leg. 30 days after cancer cell transplantation, rats (n=24) are randomly divided into two groups, one group receiving the cyclic RGD-peptide inhibitor of αvβ3/αvβ5 integrins (cilengitide, EMD 121974^14, 17, 29; Merck, Darmstadt, Germany) intraperitoneally five times per week (75 mg/kg; n=12 rats) and the other, sham-treated group, serving as a control (n=12 rats). The observation period of all animals is 55 days and no rat in the study dies ahead of schedule.
# (§2) After the inoculation of cancer cells each rat is imaged at days 30, 35, 45 and 55 using (i) a flat-panel equipped volumetric computed tomograph (Volume CT, Siemens, Germany) and (ii) a 1.5T clinical magnetic resonance scanner (Symphony, Siemens, Erlangen, Germany) equipped with a home-built receive-transmit coil (cylindrical volume resonator with an inner diameter of 83 mm and a usable length of 120 mm). Prior to in vivo imaging with VCT and MRI, rats are anesthetized with nitrous oxide, oxygen and isoflurane as described above.
# VCT imaging is obtained using the following parameters: tube voltage 80 kV, tube current 50 mA, scan time 51 s, rotation speed 10 s, frames per second 120, matrix 512×512, and slice thickness 0.2 mm. Image reconstructions are performed using a modified FDK (Feldkamp Davis Kress) cone beam reconstruction algorithm (kernel H80a; Afra, Erlangen, Germany).
# (§3) T2-weighted imaging is performed using a turbo spin echo sequence (orientation axial, TR 3240 ms, TE 81 ms, matrix 152×256, FOV 90×53.4 mm^2, slice thickness 1.5 mm, 3 averages, scan time 3 min 40 s). For dynamic contrast-enhanced MRI, a saturation recovery turbo flash sequence through the largest diameter of the tumor (orientation axial, TR 373 ms, TE 1.86 ms, matrix 192×144, FOV 130×97.5 mm, slice thickness 5 mm, measurements 512, averages 1, scan time 6 min 55 s) is used. After 20 s baseline, 0.1 mmol/kg Gd-DTPA (Magnevist; Bayer Schering Pharma, Berlin, Germany) is intravenously infused for a time period of 10 s.
# (§4) Unenhanced VCT images and MRI-acquired T2-weighted images are analyzed using the Medical Imaging Interaction Toolkit (MITK, Heidelberg, Germany) to determine volumes of osteolytic lesions and soft tissue components, respectively. DCE-MRI acquired data is analyzed using the Dynalab workstation (Mevis Research, Bremen, Germany) according to the two-compartment model of Brix to determine the parameters amplitude A and exchange rate constant kep, as described.^23, 30 Briefly, the injected contrast media is distributed in both compartments (intravascular space and extravascular, interstitial space). The accumulation of contrast agent in these compartments over time is characterized by the amplitude A (associated with blood volume), whereas the exchange of contrast agent between the intravascular space and the interstitial space is characterized by the exchange rate constant kep (associated with vessel permeability). […]
# H1299 = assay: In vitro cell viability by MTS assay, H1299; assay type: cell-based, human; settings: 5 μg/ml, 24 h
# Description: Methods: Three non-small cell lung carcinoma lines (NSCLCs) (H460, A549 and H1299) and three head and neck squamous cell carcinoma lines (HNSCCs) (FaDu, SCC-15 and SCC-25) cell lines were used for in vitro experiments. Of these, H460 and FaDu were used for in vivo testing when grown as xenografts in nude mice. The effects of cilengitide (1-50 μg/ml, 24 h) on in vitro cell viability was determined by MTS assay and on cellular radiosensitivity by clonogenic cell survival assay after exposing the cells to graded single doses of γ-radiation with or without cilengitide (given 1 h before and continued for 23 h after irradiation). In vivo effect of cilengitide on radioresponse of xenografts was assessed by tumor growth delay. When tumor xenografts reached 7 mm in diameter cilengitide treatment (30 or 60 mg/d/5 or 10 days) was initiated followed by a single dose of 15 Gy local radiation (using ^137Cs γ-ray source), when the tumors reached 8 mm.
# [2] = test system: MDA-MB-231 breast cancer bone metastases; assay: Experimental breast cancer bone metastases in nude rats: DCE-MRI parameters amplitude A and kep; assay type: in vivo, nude rats (RNU strain)
# Description: as §1, §2, §3
# as §4, with “permeability). For determination of the respective values of the amplitude A and kep of bone metastases in our study, a region of interest is placed around the soft tissue component on color maps for A and kep, respectively, using the Dynalab workstation (Mevis Research, Bremen, Germany).” for “permeability).”
smiles,measurement,setting,value
"CC(C)[C@H]1C(=O)N[C@@H](CCCN=C(N)N)C(=O)NCC(=O)N[C@@H](CC(=O)O)C(=O)N[C@H](Cc2ccccc2)C(=O)N1C [Cilengitide, cyclo-(Arg-Gly-Asp-DPhe-NMeVal)]","Mean relative values of the OL (osteolytic lesion) volumes, increase compared to initial values at day 30",[1]; day 35 (control 1.9 fold),1.5 fold
same,"Mean relative STC (soft tissue component) volume, increase compared to initial values at day 30",[1]; day 35 (control 2.3 fold),2.2 fold
same,"Mean relative values of the OL (osteolytic lesion) volumes, increase compared to initial values at day 30","[1]; day 45 (control 4.5 fold, p<0.05)",2.4 fold
same,"Mean relative STC (soft tissue component) volume, increase compared to initial values at day 30","[1]; day 45 (control 10.4 fold, p<0.05)",4.9 fold
same,"Mean relative values of the OL (osteolytic lesion) volumes, increase compared to initial values at day 30","[1]; day 55 (control 9.7 fold, p<0.01)",3.5 fold
same,"Mean relative STC (soft tissue component) volume, increase compared to initial values at day 30","[1]; day 55 (control 22.5 fold, p<0.01)",6.3 fold
same,rats showing new bone formation under therapy as imaged by VCT,"[1]; treatment group, three of 12 rats, not in control animals",25%
same,in vitro viability,H1299,27.8±4.2%
same,"DCE-MRI parameter exchange rate constant kep, mean relative value",[2]; day 35 (controls 86%; p>0.05),69 % of initial value
same,"DCE-MRI parameter amplitude A, mean relative value",[2]; day 35 post inoculation (controls 106%; p>0.05),97 % of initial value
same,"DCE-MRI parameter exchange rate constant kep, mean relative value",[2]; day 45 (controls 63%; p>0.05),88 % of initial value
same,"DCE-MRI parameter amplitude A, mean relative value",[2]; day 45 (controls 125%; p<0.05),102 % of initial value
same,"DCE-MRI parameter exchange rate constant kep, mean relative value",[2]; day 55 (controls 40%; p<0.05),72 % of initial value
same,"DCE-MRI parameter amplitude A, mean relative value",[2]; day 55 (controls 105%; p<0.05),93 % of initial value
